Read-outs that look alike come from different tables or passages of the source. Starred links: 1 amine or outer side, 2 acyl side, 3 side chain; linkers in the order of their positions; H or OH if unused. Non-standard residues stand in square brackets, D forms with d. Residues, ends and D or L forms follow the SMILES beside them. ξ: configuration not given here. dNMe2Nal = CN[C@H](Cc1ccc2ccccc2c1)C(=O)O; d2Nal = N[C@H](Cc1ccc2ccccc2c1)C(=O)O; ξNMe2Nal = CNC(Cc1ccc2ccccc2c1)C(=O)O; β3hAib = CC(C)(CC(=O)[*:2])N[*:1]; NMeF = CN[C@@H](Cc1ccccc1)C(=O)O; Ac6c = NC1(C(=O)O)CCCCC1; Nle = CCCC[C@H](N)C(=O)O; Inp = O=C(O)C1CCNCC1; ξK = NCCCCC(N)C(=O)O; Ahp = NCCCCCCC(=O)O; Ava = NCCCCC(=O)O
What was measured:
rat pituitary cells [1] = target: T1, rat pituitary cells (Rattus norvegicus, UniProt O08725); assay: Rat “pit” cell challenges: combinations with GHRP-6/GHRH, desensitization, somatostatin suppression, GHRP antagonist; assay type: cell-based; conditions: for GH response compared with control / GH release after sequential 15 min incubations with fresh compound (desensitization): 100 nM; for GH release in combination with GHRH: GHRP 100 nM plus GHRH 10 or 100 nM; for GH release in combination with GHRP-6: both at 100 nM; for GH release in the presence of 20 nM somatostatin: coincubation with 20 nM somatostatin; for GH release after sequential 15 min incubations with fresh compound (desensitization): three sequential 15 min incubations
T1 sequence (O08725 whole entry): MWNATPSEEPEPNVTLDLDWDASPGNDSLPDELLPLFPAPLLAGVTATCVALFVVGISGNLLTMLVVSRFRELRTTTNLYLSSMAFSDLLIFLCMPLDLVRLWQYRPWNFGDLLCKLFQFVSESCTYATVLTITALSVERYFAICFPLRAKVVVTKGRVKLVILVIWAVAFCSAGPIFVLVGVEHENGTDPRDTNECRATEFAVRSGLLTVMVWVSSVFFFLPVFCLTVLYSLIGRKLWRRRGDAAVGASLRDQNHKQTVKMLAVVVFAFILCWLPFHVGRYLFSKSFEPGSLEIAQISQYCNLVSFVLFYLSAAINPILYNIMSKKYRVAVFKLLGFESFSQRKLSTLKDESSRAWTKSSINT
Method: Dispersion: Adult female Sprague-Dawley (160-180 g., Charles River) rats were group-caged in a 12:12 light:dark cycle with food and water available ad libitum. Pituitaries from ten rats were removed, the posterior pituitary discarded and the anterior pituitary placed in Hanks' Balanced Salt Solution (HBSS: without calcium chloride, w/o magnesium chloride, w/o magnesium sulfate; Gibco) containing 20 mM HEPES (Gibco) and 100 U/ml penicillin streptomycin (PS: JRH Biosciences). Under sterile conditions, pituitaries were rinsed twice then minced into small fragments with a razor blade. Fragments were resuspended in 5 ml of HBSS/HEPES containing 20 mg collagenase (Serva 17449) and 200 ml of 1 mg/ml DNase (Sigma) for a 40 min. incubation in a 37° C. gyrotory water bath shaker (New Brunswick Scientific Model G76; setting 10). After the incubation, fragments were triturated to yield small clumps and single cells. The cells were centrifuged 1000× g for 5 min, resuspended, counted and plated at a final cell concentration of 100,000 cells/ml. Incubation media was DME low glucose media w/NaHCO3 (Gibco) containing 20 mM hepes, 100 U/ml PS and 10% FBS (Hyclone A-111-L). Cells were plated at 0.5 ml per well in 48 well plates (Falcon) and incubated at 37° C. in 5% C02 for three days. […] The highest concentration of DMSO in media was 0.1%. Stock solutions (1 mM) of rat GHRH, somatostatin (Sigma) and GHRP antagonist HwkWfK were made fresh in media and diluted appropriately. The media used in all challenges and washing steps was DME low glucose with 20 mM Hepes, 100 U/ml PS, 10% FBS. Media was warmed to 37° C. and gassed by placing it into the incubator prior to challenge. On day three, the media was discarded and fresh media (approximately 1 ml) added for the first of three washes. After the last wash, the plate was placed back in the incubator for a 15 min pre-incubation. Then cells were washed 2× (with warmed and gassed media) and fresh 0.5 ml media were added for the second 15 min. pre-incubation. After the second pre-incubation cells were washed 2× as above and 0.5 ml of control and test solutions were added for a final 15 min incubation. After this incubation, the media were removed for subsequent GH ELISA. GH ELISA: A two-site ELISA was used to determine rat GH concentration in the media. Briefly, goat anti-rat GH antibody (lot#19164-20) was used to coat Nunc immunoplates overnight. After blocking and washing, standard (rat GH reference preparation: Parlow) and challenge media is diluted 1:20 prior to GH assay were added for a 1 hr room temperature incubation. STATISTICS: The mean for each group was determined and analyzed by one-way analysis of variance with a post-hoc Student-Newman-Keuls. Significance is defined as P<0.05. The EC50 was calculated using a 4-parameter curve-fit program (Kaleidagraph). Three to four independent EC50s were used to derive the mean and SEM.

rat pituitary cells [2] = target: T1, rat pituitary cells
Summary of the method: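 Primary rat anterior pituitary cells, cultured three days in DME low glucose/10% FBS, were washed, pre-incubated twice for 15 min, then challenged 15 min with test compounds (DMSO ≤0.1%) at 37 °C. Released GH was measured by two-site ELISA; EC50 came from 4-parameter fits, mean of three to four independent determinations.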

growth hormone secretion = assay: GHRP induced growth hormone secretion, intravenous administration (Rat IV); assay type: in vivo; conditions: iv injection, serum GH 10 min after injection
Summary of the method: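 Female Sprague Dawley rats (24-30 days, 50-90 g) under intraperitoneal pentobarbitone received graded intravenous tail-vein peptide doses in pH 5.0 sodium acetate/mannitol buffer 20 min post-anaesthesia. Blood by cardiac puncture 10 min after dosing; serum GH measured by rat GH ELISA in duplicate.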

[3] = read-out: EC50 of the representative GH dose response, single representative experiment, 15 min exposure
[4] = read-out: mean EC50, mean ± SE of independent EC50s
[5] = read-out: PIT Cell EC50, Table IV, formula III compounds, GH release, 15 min incubation
[6] = read-out: PIT Cell EC50, Table III, formula IV compounds, GH release, 15 min incubation
[7] = read-out: PIT Cell EC50, Table V, formula II compounds, GH release, 15 min incubation

SMILES | EC50 (rat pituitary cells [2]; [5]) | RAT IV ED50 (growth hormone secretion; Table IV) | EC50 (rat pituitary cells [2]; [6]) | RAT IV ED50 (growth hormone secretion; Table III) | further results
O=C(N[C@H](Cc1ccc2ccccc2c1)C(=O)N[C@@H](CO)Cc1c[nH]c2ccccc12)C1CCNCC1 [(inip) b wol, (inip)-DβNal-(D-Tryptophanol)] |  |  |  |  | GH response compared with control (rat pituitary cells [1]): significantly greater than control; GH release in combination with GHRH (rat pituitary cells [1]): synergistic; GH release in combination with GHRP-6 (rat pituitary cells [1]): not synergistic; GH release in the presence of 20 nM somatostatin (rat pituitary cells [1]): totally suppressed; GH release after sequential 15 min incubations with fresh compound (desensitization) (rat pituitary cells [1]): no significant release of GH; EC50 (rat pituitary cells [2]; [3]): 3.9 nM; EC50 (rat pituitary cells [2]; [4]): 10.6 ± 6.2 nM; RAT IV ED50 (growth hormone secretion; Table V): 0.8 µg
O=C(N[C@H](Cc1ccc2ccccc2c1)C(=O)N[C@H](Cc1ccc2ccccc2c1)C(=O)NC1CCNCC1)C1CCNCC1 [(inip) b b api] | 2.7 nM | 25 µg |  |  | 
CN(C(=O)CCCCN)[C@H](Cc1ccc2ccccc2c1)C(=O)N[C@H](Cc1ccc2ccccc2c1)C(=O)N[C@@H](Cc1ccccc1)C(N)=O [(Ava) nmb b F amide] (H-[Ava][dNMe2Nal][d2Nal]F-NH2) | 1.6 nM | 20 µg |  |  | 
NC(=O)C1(NC(=O)[C@@H](Cc2ccc3ccccc3c2)NC(=O)[C@@H](Cc2ccc3ccccc3c2)NC(=O)C2CCNCC2)CCCCC1 [(inip) b b Abx amide] (H-[Inp][d2Nal][d2Nal][Ac6c]-NH2) | 13 nM | 100 µg |  |  | 
CC(C)(N)CC(=O)N[C@H](Cc1ccc2ccccc2c1)C(=O)N[C@H](Cc1ccc2ccccc2c1)C(=O)N[C@@H](Cc1ccccc1)C(=O)N[C@@H](CCCCN)C(N)=O [(nba) b b F K amide] (β3hAib-[d2Nal][d2Nal]FK-NH2) |  |  | 2.8 nM | 100 µg | 
C[C@@H](N)C(=O)N[C@H](Cc1c[nH]c2ccccc12)C(=O)N[C@H](Cc1c[nH]c2ccccc12)C(=O)N[C@@H](Cc1ccccc1)C(=O)N[C@@H](CCCCN)C(N)=O [a w w F K amide] (H-[dA][dW][dW]FK-NH2) |  |  | 4.1 nM | 1.47 µg | 
NC(=O)CCN(CCc1ccccc1)C(=O)[C@@H](Cc1ccc2ccccc2c1)NC(=O)[C@@H](Cc1ccc2ccccc2c1)NC(=O)C1CCNCC1 [(inip) b b feb amide] | 0.3 nM | 0.67 µg |  |  | 
NCCCCCCC(=O)N[C@H](Cc1ccc2ccccc2c1)C(=O)N[C@H](Cc1ccc2ccccc2c1)C(=O)N[C@@H](Cc1ccccc1)C(=O)N[C@@H](CCCCN)C(N)=O [(ahp) b b F K amide] (H-[Ahp][d2Nal][d2Nal]FK-NH2) |  |  | 34.3 nM | 100 µg | 
O=C(N[C@H](Cc1c[nH]c2ccccc12)C(=O)N[C@@H](CO)Cc1c[nH]c2ccccc12)C1CCNCC1 [(inip) w wol] |  |  |  |  | EC50 (rat pituitary cells [2]; [7]): 4 nM; RAT IV ED50 (growth hormone secretion; Table V): 20 µg
NC(=O)[C@H](Cc1ccccc1)NC(=O)[C@@H](Cc1c[nH]c2ccccc12)NC(=O)[C@@H](Cc1c[nH]c2ccccc12)NC(=O)C1CCNCC1 [(inip) w w F amide] (H-[Inp][dW][dW]F-NH2) | 0.9 nM | 5 µg |  |  | 
CN(C(=O)C1CCNCC1)[C@H](Cc1ccc2ccccc2c1)C(=O)N[C@H](Cc1ccc2ccccc2c1)C(=O)N[C@@H](Cc1ccccc1)C(N)=O [(inip) nmb b F amide] (H-[Inp][dNMe2Nal][d2Nal]F-NH2) | 0.5 nM | 5 µg |  |  | 
NC(=O)[C@@H](Cc1ccccc1)NC(=O)[C@@H](Cc1ccc2ccccc2c1)NC(=O)[C@@H](Cc1ccc2ccccc2c1)NC(=O)C1CCNCC1 [(inip) b b f amide] (H-[Inp][d2Nal][d2Nal][dF]-NH2) | 0.6 nM | 20 µg |  |  | 
CN(C(=O)[C@@H](Cc1ccc2ccccc2c1)NC(=O)[C@@H](Cc1ccc2ccccc2c1)NC(=O)C1CCNCC1)[C@@H](Cc1ccccc1)C(N)=O [(inip) bb nmF amide] (H-[Inp][d2Nal][d2Nal][NMeF]-NH2) | 0.6 nM | 5 µg |  |  | 
CNC(=O)[C@H](Cc1ccccc1)NC(=O)[C@@H](Cc1ccc2ccccc2c1)NC(=O)[C@@H](Cc1ccc2ccccc2c1)NC(=O)C1CCNCC1 [(inip) b b F mam] (H-[Inp][d2Nal][d2Nal]F-NHMe) |  |  | 2 nM | 2 µg | 
NCCCNC(=O)[C@H](Cc1ccc2ccccc2c1)NC(=O)[C@@H](Cc1ccc2ccccc2c1)NC(=O)[C@@H](Cc1ccc2ccccc2c1)NC(=O)CCCN [(Ab) b b B ram, (4-Aminobutanoyl)-DβNal-DβNal-βNal-[N-(3-aminopropyl)] Amide] |  |  | 2.4 nM | 10 µg | 
NCCCCC(=O)N[C@H](Cc1ccc2ccccc2c1)C(=O)N[C@H](Cc1ccc2ccccc2c1)C(=O)N[C@@H](Cc1ccccc1)C(=O)N[C@@H](CC(N)=O)C(N)=O [(Ava) b b F N amide] (H-[Ava][d2Nal][d2Nal]FN-NH2) |  |  | 7.7 nM | 200 µg | 
NCCCCC(=O)N[C@H](Cc1ccc2ccccc2c1)C(=O)N[C@H](Cc1ccc2ccccc2c1)C(=O)N[C@@H](Cc1ccccc1)C(=O)N[C@H](CCCCN)C(N)=O [(Ava) b b F k amide] (H-[Ava][d2Nal][d2Nal]F[dK]-NH2) |  |  | 17 nM | 33.3 µg | 
O=C(N[C@H](Cc1ccc2ccccc2c1)C(=O)N[C@H](Cc1ccc2ccccc2c1)C(=O)N[C@@H](Cc1ccccc1)C(=O)O)C1CCNCC1 [(inip) b b F acid, (inip)-DβNal-DβNal-Phe] (H-[Inp][d2Nal][d2Nal]F-OH) | 0.2 nM | 2 µg |  |  | 
O=C(N[C@H](Cc1ccc2ccccc2c1)C(=O)NCCc1c[nH]c2ccccc12)C1CCNCC1 [(inip) b tra, (inip)-DβNal-[N-tryptaminyl] amide] |  |  |  |  | EC50 (rat pituitary cells [2]; [7]): 100 nM; RAT IV ED50 (growth hormone secretion; Table V): 100 µg
NCCCC[C@H](NC(=O)[C@H](Cc1ccccc1)NC(=O)[C@@H](Cc1ccc2ccccc2c1)NC(=O)[C@@H](Cc1c[nH]c2ccccc12)NC(=O)[C@@H](N)Cc1c[nH]cn1)C(N)=O [H w b F K amide] (H-H[dW][d2Nal]FK-NH2) |  |  | 15 nM | 50 µg | 
CN(C(=O)C1CCNCC1)C(Cc1ccc2ccccc2c1)C(=O)N[C@H](Cc1c[nH]c2ccccc12)C(=O)N[C@@H](Cc1ccccc1)C(=O)NC(CCCCN)C(N)=O (stereo partly drawn) [(inip) nmb w F K amide, (inip)-(N-Me-DβNal)-DTrp-Phe-Lys-amide] (H-[Inp][ξNMe2Nal][dW]F[ξK]-NH2) |  |  | 0.2 nM | 0.2 µg | 
NC(=O)CN(CCc1ccccc1)C(=O)[C@@H](Cc1ccc2ccccc2c1)NC(=O)[C@@H](Cc1ccc2ccccc2c1)NC(=O)C1CCNCC1 [(inip) b b feg amide, (inip)-DβNal-DβNal-(N-2-phenylethyl-Gly) amide] |  | 1 µg |  |  | GH response compared with control (rat pituitary cells [1]): significantly greater than control; GH release in combination with GHRH (rat pituitary cells [1]): synergistic; GH release in combination with GHRP-6 (rat pituitary cells [1]): not synergistic; GH release in the presence of 20 nM somatostatin (rat pituitary cells [1]): totally suppressed; GH release after sequential 15 min incubations with fresh compound (desensitization) (rat pituitary cells [1]): markedly decreased; fold more potent than GHRP-6 (rat pituitary cells [2]; ratio of pit cell EC50s): ~25 fold; EC50 (rat pituitary cells [2]; [3]): 0.09 nM; EC50 (rat pituitary cells [2]; [4]): 0.25 ± 0.19 nM
CN(C(=O)C1CCNCC1)[C@H](Cc1ccc2ccccc2c1)C(=O)N[C@H](Cc1ccc2ccccc2c1)C(=O)N[C@@H](Cc1ccccc1)C(=O)O [(inip) nmb b F acid] (H-[Inp][dNMe2Nal][d2Nal]F-OH) | 1.4 nM | 5 µg |  |  | 
CN(C(=O)C1CCNCC1)C(Cc1ccc2ccccc2c1)C(=O)N[C@H](Cc1ccc2ccccc2c1)C(=O)N[C@@H](Cc1ccccc1)C(=O)NC(CCCCN)C(N)=O (stereo partly drawn) [(inip) nmb b F K amide, (inip)-(N-Me-DβNal)-DβNal-Phe-Lys-amide] (H-[Inp][ξNMe2Nal][d2Nal]F[ξK]-NH2) |  |  | 0.27 nM | 0.4 µg | 
CCCC[C@H](NC(=O)[C@@H](Cc1ccc2ccccc2c1)NC(=O)[C@@H](Cc1ccc2ccccc2c1)NC(=O)C1CCNCC1)C(N)=O [(inip) b b nL amide] (H-[Inp][d2Nal][d2Nal][Nle]-NH2) | 4.3 nM | 3.3 µg |  |  | 

From patent publication US7094869B2, “Low molecular weight peptidomimetic growth hormone secretagogues” (Genentech, Inc., priority 1994, dated 2006)
